Measurements as given in PMC12749127 (Scientific Reports, 2025).

Key:
recombinant human IMPA = conditions: read-out: inhibition constant (Ki); cited from earlier work
recombinant bovine IMPA = conditions: read-out: inhibition constant (Ki); cited from earlier work
IMPA = conditions: in vitro assays; cited from earlier work
[1] = biological target: T1, recombinant human inositol monophosphatase 1 (IMPA1) (Homo sapiens, UniProt P29218); experiment: In vitro enzymatic assay of IMPA activity; format: biochemical
T1 sequence (P29218 1-277): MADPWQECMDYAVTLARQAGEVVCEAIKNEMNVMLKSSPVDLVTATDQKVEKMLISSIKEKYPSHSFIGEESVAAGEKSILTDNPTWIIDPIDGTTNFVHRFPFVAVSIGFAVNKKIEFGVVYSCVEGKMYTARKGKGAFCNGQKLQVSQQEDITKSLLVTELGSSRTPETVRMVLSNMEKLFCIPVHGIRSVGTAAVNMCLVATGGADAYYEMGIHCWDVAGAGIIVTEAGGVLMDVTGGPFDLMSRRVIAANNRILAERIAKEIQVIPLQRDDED

myo-inositol levels = experiment: Cellular myo-inositol levels; format: cell-based; conditions: 30 mM LiCl or 25 µM ebselen
DENV-2 = experiment: IMPA1 silencing using siRNA, DENV-2 virus titer in imHC cells; format: cell-based; conditions: Dengue virus, DENV2, read-out: decrease of inhibitory effect of ebselen in si_IMPA1-silenced cells
PI(4)P and ZIKV-NS1 = experiment: Immunofluorescence of PI; format: cell-based; conditions: ZIKV-infected imHC cells, MOI 1, 48 hpi, ebselen treatment
PI(4)P = experiment: Immunofluorescence of PI; format: cell-based, human; conditions: imHC cells, 24 hours of treatment

CC(Oc1ccc(O)cc1)(P(=O)(O)O)P(=O)(O)O [L-690,330]
Ki (recombinant human IMPA): 270 nM
Ki (recombinant bovine IMPA): 190 nM
potency relative to lithium (in words) (IMPA): approximately a thousand-fold greater potency than lithium

O=c1c2ccccc2[se]n1-c1ccccc1 [Ebselen]
IC50 [1]: 950 nM
myo-inositol levels vs untreated control (in words) (myo-inositol levels): significant reduction
inhibition at 20 µM (DENV-2): ~16%
PI(4)P levels (in words) (PI(4)P and ZIKV-NS1): reduction
ZIKV-NS1 protein expression (in words) (PI(4)P and ZIKV-NS1): reduction

O[C@H]1[C@H](O)[C@@H](O)[C@H](O)[C@@H](O)[C@H]1O [inositol]
PI(4)P levels following the addition of inositol (in words) (PI(4)P): increased levels

[Cl-].[Li+] [LiCl]
myo-inositol levels vs untreated control (in words) (myo-inositol levels): significant reduction
